Patent US20240196663A1, “DISPLAY APPARATUS, DISPLAY MODULE, AND ELECTRONIC DEVICE” (SEMICONDUCTOR ENERGY LABORATORY CO., LTD., priority 2022, published 2024)

Experiment: physchem

SMILES	pKa
c1cc(N2CCCn3ccnc32)nc(N2CCCn3ccnc32)c1 [2,6tip2Py, 8,8′-pyridine-2,6-diyl-bis(5,6,7,8-tetrahydroimidazo[1,2-a]pyrimidine)]	9.58
c1cc2ccc3ccc(N4CCCN5CCCN=C54)nc3c2nc1N1CCCN2CCCN=C21 [2,9hpp2Phen, 2,9-bis(1,3,4,6,7,8-hexahydro-2H-pyrimido[1,2-a]pyrimidin-1-yl)-1,10-phenanthroline]	13.3
c1cnc2c(c1)ccc1cccnc12 [phenanthroline, reference compound]	4.8
c1cc(N2CCCC2)c2ccc3c(N4CCCC4)ccnc3c2n1 [Pyrrd-Phen, 4,7-di-1-pyrrolidinyl-1,10-phenanthroline]	11.2

Second part, the compound after the results:

pKa	SMILES
13.9	c1ccc2c(c1)-c1ccccc1C21c2ccccc2-c2ccc(N3CCCN4CCCN=C43)cc21 [2hppSF, 1-(9,9′-spirobi[9H-fluoren]-2-yl)-1,3,4,6,7,8-hexahydro-2H-pyrimido[1,2-a]pyrimidine]
0.6	c1cc(-c2ccc3oc4c(-c5cccc(-c6cccc7c6sc6ccccc67)c5)ncnc4c3c2)cc(-c2cccc3c2sc2ccccc23)c1 [4,8mDBtP2Bfpm, 4,8-bis[3-(dibenzothiophen-4-yl)phenyl]-[1]benzofuro[3,2-d]pyrimidine]
0.37	c1cnccn1 [pyrazine, reference compound]
